Results reported in ChEMBL document CHEMBL1201862, “PubChem BioAssay data set” (2004).
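Results reflect a 48-hour exposure of cells in 96-well plates to compound at five concentrations. Here, GI50 denotes the concentration required for 50% inhibition of growth.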 The source made the active and inactive calls. No stated cut-off is given here; in the data, active = GI50 up to about 1.1 µM and inactive = higher.

Assays:
Assay in all cases: NCI anticancer screen, dose series, 48 h
HCT-116 = test system: HCT-116
OVCAR-3 = test system: OVCAR-3
TK-10 = test system: TK-10
SW-620 = test system: SW-620
IGROV-1 = test system: IGROV-1
T47D = test system: T47D
DU-145 = test system: DU-145
Hs-578T = test system: Hs-578T
ACHN = test system: ACHN
MCF7 = test system: MCF7
MOLT-4 = test system: MOLT-4
NCI-H522 = test system: NCI-H522
UACC-257 = test system: UACC-257
UACC-62 = test system: UACC-62
SNB-19 = test system: SNB-19
A498 = test system: A498
OVCAR-4 = test system: OVCAR-4
RXF 393 = test system: RXF 393

Compound | GI50 (HCT-116) | GI50 (OVCAR-3) | GI50 (TK-10) | GI50 (SW-620) | GI50 (IGROV-1) | GI50 (T47D) | GI50 (DU-145) | GI50 (Hs-578T) | GI50 (ACHN) | GI50 (MCF7) | GI50 (MOLT-4) | GI50 (NCI-H522) | GI50 (UACC-257) | GI50 (UACC-62) | GI50 (SNB-19) | GI50 (A498) | GI50 (OVCAR-4) | GI50 (RXF 393)
O=P1(Oc2ccccc2)N=P(c2ccccc2)(c2ccccc2)C=C(c2ccc(Cl)cc2)N1 (stereo not given) | 7.23 µM (inactive) | 4.51 µM (inactive) | 13.1 µM (inactive) | 12.3 µM (inactive) | 12.2 µM (inactive) | 5.19 µM (inactive) | 13.9 µM (inactive) | 16.7 µM (inactive) | 13 µM (inactive) | 2.45 µM (inactive) | 5.18 µM (inactive) | 10.1 µM (inactive) | 15.4 µM (inactive) | 13.9 µM (inactive) | 15.3 µM (inactive) | – | – | –
COC(=O)[C@@H]1CN(C(=O)CCc2ccccc2)C(=O)N1 | > 100 µM (inactive) | > 100 µM (inactive) | > 100 µM (inactive) | > 100 µM (inactive) | > 100 µM (inactive) | > 100 µM (inactive) | > 100 µM (inactive) | > 100 µM (inactive) | > 100 µM (inactive) | – | > 100 µM (inactive) | > 100 µM (inactive) | > 100 µM (inactive) | – | > 100 µM (inactive) | > 100 µM (inactive) | > 100 µM (inactive) | > 100 µM (inactive)
Cc1c2c(c(O)c3c(O)cccc13)C(=O)C1(O)C(=O)C(C(=O)NCNc3ccc(C(N)=O)cn3)=C(O)C(N(C)C)C1C2 (stereo not given) | 4.06 µM (inactive) | 2.49 µM (inactive) | 5.15 µM (inactive) | 3.52 µM (inactive) | 1.82 µM (inactive) | 5.61 µM (inactive) | 4.39 µM (inactive) | – | – | 9.27 µM (inactive) | 2.74 µM (inactive) | – | 3.66 µM (inactive) | 3.39 µM (inactive) | – | 2.51 µM (inactive) | 1.93 µM (inactive) | 2.89 µM (inactive)
Cc1ccc(S(=O)(=O)Oc2nc3nc4ccccc4nc3nc2OS(=O)(=O)c2ccc(C)cc2)cc1 | > 100 µM (inactive) | > 100 µM (inactive) | > 100 µM (inactive) | – | > 100 µM (inactive) | – | > 100 µM (inactive) | > 100 µM (inactive) | > 100 µM (inactive) | > 100 µM (inactive) | – | > 100 µM (inactive) | > 100 µM (inactive) | > 100 µM (inactive) | > 100 µM (inactive) | > 100 µM (inactive) | – | > 100 µM (inactive)
COc1ccc(N2C(=O)CSC2c2cc(OC)c(OC)c(OC)c2)cc1 (stereo not given) | 16.8 µM (inactive) | 25.5 µM (inactive) | 43.2 µM (inactive) | 34 µM (inactive) | 33.7 µM (inactive) | – | 14.5 µM (inactive) | 48.6 µM (inactive) | 20.7 µM (inactive) | 37.6 µM (inactive) | 21.4 µM (inactive) | 14.1 µM (inactive) | 12.5 µM (inactive) | 4.71 µM (inactive) | 23.2 µM (inactive) | 29 µM (inactive) | 42.5 µM (inactive) | –
COC(=O)CN1SC2(SC13C(C)(C)C(=O)C3(C)C)C(C)(C)C(=O)C2(C)C | 46 µM (inactive) | 41.6 µM (inactive) | > 100 µM (inactive) | 68.7 µM (inactive) | 89.5 µM (inactive) | > 100 µM (inactive) | 31.5 µM (inactive) | > 100 µM (inactive) | > 100 µM (inactive) | 54.2 µM (inactive) | 37 µM (inactive) | – | 48.2 µM (inactive) | > 100 µM (inactive) | > 100 µM (inactive) | 30 µM (inactive) | > 100 µM (inactive) | –
Nc1c(-c2ccc(Cl)c(Cl)c2)c2ccc([N+](=O)[O-])cc2c(=O)n1-c1nc2ccccc2s1 | 0.202 µM (active) | 0.382 µM (active) | 0.594 µM (active) | 0.574 µM (active) | 0.796 µM (active) | 0.386 µM (active) | 0.867 µM (active) | – | 0.448 µM (active) | 0.401 µM (active) | 1.12 µM (active) | 0.193 µM (active) | 0.471 µM (active) | 0.419 µM (active) | 0.418 µM (active) | 0.566 µM (active) | 1.19 µM (inactive) | 0.689 µM (active)
Oc1ccc2c3c1OC1c4[nH]c5c(c4CC4(O)C(C2)N(CC2CC2)CC[C@]314)CC1(O)C2Cc3ccc(O)c4c3[C@@]1(CCN2CC1CC1)C5O4 (stereo not given in full) | 17.5 µM (inactive) | 17.6 µM (inactive) | 21.2 µM (inactive) | 21.9 µM (inactive) | > 100 µM (inactive) | 18.6 µM (inactive) | 37.2 µM (inactive) | – | > 100 µM (inactive) | 34.7 µM (inactive) | 22.4 µM (inactive) | 19.3 µM (inactive) | 20.3 µM (inactive) | 20.4 µM (inactive) | 24.3 µM (inactive) | 17.5 µM (inactive) | 29.8 µM (inactive) | 18.1 µM (inactive)
